Measured values as given in patent US8614223B2, “Pyrimidine hydroxy amide compounds as protein deacetylase inhibitors and methods of use thereof” (Acetylon Pharmaceuticals, Inc., priority 2010, dated 2013).

Assays:
HDAC2 = HDAC2 (Homo sapiens (Human), UniProt Q92769); experiment: HDAC enzyme assay, HDAC2; details: for HDAC2 fold over HDAC6 IC50 (selectivity for HDAC6): ratio HDAC2/HDAC6; for IC50: read-out: HDAC2 IC50
HDAC6 = HDAC6 (Homo sapiens (Human), UniProt Q9UBN7); details: read-out: HDAC6 IC50
HDAC6, sequence (Q9UBN7 whole entry): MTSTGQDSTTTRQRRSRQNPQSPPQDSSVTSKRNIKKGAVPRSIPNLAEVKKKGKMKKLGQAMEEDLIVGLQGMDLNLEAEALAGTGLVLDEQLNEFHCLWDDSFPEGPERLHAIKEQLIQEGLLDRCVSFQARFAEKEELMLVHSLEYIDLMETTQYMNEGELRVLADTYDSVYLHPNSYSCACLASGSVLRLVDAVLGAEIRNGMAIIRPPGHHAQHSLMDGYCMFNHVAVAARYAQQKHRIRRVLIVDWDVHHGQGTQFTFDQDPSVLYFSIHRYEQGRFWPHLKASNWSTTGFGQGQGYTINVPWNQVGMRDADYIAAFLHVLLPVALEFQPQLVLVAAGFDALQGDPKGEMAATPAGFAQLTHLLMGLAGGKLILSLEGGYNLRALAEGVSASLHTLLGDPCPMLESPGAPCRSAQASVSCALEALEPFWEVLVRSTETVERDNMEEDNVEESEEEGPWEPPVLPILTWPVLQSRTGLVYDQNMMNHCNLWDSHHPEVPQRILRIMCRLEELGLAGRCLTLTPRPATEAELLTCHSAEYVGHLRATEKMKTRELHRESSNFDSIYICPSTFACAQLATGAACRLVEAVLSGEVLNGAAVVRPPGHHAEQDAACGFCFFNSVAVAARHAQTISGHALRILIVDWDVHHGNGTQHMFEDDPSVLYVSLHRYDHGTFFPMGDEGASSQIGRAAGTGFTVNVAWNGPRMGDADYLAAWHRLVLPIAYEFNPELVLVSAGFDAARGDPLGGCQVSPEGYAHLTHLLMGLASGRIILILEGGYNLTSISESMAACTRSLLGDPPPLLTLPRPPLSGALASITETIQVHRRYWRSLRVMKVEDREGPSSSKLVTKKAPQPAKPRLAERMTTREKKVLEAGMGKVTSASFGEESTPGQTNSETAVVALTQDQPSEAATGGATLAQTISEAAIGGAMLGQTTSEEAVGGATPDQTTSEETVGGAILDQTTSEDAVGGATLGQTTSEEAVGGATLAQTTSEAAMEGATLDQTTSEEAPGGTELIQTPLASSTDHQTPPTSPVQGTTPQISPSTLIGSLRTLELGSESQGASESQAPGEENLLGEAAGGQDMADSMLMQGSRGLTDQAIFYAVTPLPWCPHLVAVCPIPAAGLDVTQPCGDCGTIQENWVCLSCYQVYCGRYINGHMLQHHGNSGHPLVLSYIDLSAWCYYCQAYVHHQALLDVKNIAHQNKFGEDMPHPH

HDAC1 = HDAC1 (Homo sapiens (Human), UniProt Q13547); experiment: HDAC enzyme assay, HDAC1; details: for HDAC1 fold over HDAC6 IC50 (selectivity for HDAC6): ratio HDAC1/HDAC6; for IC50: read-out: HDAC1 IC50
HDAC1, sequence (Q13547 whole entry): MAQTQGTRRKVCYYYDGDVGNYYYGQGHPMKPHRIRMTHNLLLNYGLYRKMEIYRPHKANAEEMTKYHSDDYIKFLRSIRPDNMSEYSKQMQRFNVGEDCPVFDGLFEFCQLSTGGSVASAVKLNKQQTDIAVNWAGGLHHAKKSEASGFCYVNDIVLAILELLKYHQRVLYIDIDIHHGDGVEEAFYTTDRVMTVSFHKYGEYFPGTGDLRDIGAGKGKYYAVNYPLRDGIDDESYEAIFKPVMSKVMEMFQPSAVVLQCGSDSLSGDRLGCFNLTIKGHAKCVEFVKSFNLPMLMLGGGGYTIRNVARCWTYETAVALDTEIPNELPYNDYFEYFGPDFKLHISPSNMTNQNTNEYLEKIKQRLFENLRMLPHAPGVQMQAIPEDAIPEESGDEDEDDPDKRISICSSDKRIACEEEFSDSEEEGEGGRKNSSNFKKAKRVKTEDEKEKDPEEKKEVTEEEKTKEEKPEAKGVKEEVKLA

HDAC3 = HDAC3 (Homo sapiens (Human), UniProt O15379); experiment: HDAC enzyme assay, HDAC3; details: for HDAC3 fold over HDAC6 IC50 (selectivity for HDAC6): ratio HDAC3/HDAC6; for IC50: read-out: HDAC3 IC50
HDAC3, sequence (O15379 whole entry): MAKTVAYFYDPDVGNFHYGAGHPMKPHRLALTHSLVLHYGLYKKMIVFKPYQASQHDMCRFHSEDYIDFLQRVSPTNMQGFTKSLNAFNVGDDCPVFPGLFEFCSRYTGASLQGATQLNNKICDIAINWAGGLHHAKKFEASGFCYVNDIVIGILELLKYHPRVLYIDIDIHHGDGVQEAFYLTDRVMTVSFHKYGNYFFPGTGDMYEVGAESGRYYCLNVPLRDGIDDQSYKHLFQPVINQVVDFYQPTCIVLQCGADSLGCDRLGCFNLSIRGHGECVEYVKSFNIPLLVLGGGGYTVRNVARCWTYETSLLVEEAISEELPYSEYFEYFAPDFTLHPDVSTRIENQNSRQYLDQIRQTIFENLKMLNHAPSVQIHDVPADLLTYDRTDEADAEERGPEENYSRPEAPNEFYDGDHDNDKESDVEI
HDAC3, sequence (Q9Y618 395-489 partner): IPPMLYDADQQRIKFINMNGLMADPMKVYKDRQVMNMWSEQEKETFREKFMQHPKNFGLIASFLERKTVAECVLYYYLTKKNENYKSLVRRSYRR

HDAC2, sequence (Q92769 whole entry): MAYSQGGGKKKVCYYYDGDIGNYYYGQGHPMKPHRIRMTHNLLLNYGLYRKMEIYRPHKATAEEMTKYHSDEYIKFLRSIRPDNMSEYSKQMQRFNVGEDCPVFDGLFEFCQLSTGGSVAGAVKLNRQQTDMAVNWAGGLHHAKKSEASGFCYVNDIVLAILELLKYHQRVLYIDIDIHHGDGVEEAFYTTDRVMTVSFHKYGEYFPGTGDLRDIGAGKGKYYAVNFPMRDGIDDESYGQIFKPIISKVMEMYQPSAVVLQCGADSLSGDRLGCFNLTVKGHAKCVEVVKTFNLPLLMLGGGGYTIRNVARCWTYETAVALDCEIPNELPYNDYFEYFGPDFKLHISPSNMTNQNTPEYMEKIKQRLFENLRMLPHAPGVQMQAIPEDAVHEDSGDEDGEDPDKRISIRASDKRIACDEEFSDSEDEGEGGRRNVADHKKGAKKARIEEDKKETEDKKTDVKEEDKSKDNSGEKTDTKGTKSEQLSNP

| HDAC2 fold over HDAC6 IC50 (selectivity for HDAC6) (HDAC2) | IC50 (HDAC2) [µM] | IC50 (HDAC6) [µM] | HDAC1 fold over HDAC6 IC50 (selectivity for HDAC6) (HDAC1) | IC50 (HDAC1) [µM] | HDAC3 fold over HDAC6 IC50 (selectivity for HDAC6) (HDAC3) | IC50 (HDAC3) [µM] | Structure (SMILES) |
| --- | --- | --- | --- | --- | --- | --- | --- |
| (68.4x) | 0.33 | 0.005 | (66.1x) | 0.32 | (367.7x) | 1.78 | O=C(NO)c1cnc(NC2(c3ccc(F)cc3)CCOCC2)nc1 [Compound 150] |
| (504.7x) | 4.76 | 0.009 | (339.9x) | 3.21 | (1428.4x) | 13.5 | O=C(NO)c1cnc(NC2(c3ccc(F)cc3)CCCCC2)nc1 [Compound 100] |
| (96.5x) | 1.8 | 0.019 | (77.6x) | 1.45 | (93.7x) | 1.75 | O=C(NO)c1cnc(NCCc2c(Cl)cccc2Cl)nc1 [Compound 63] |
| (32.8x) | 0.29 | 0.009 | (22x) | 0.195 | (32.9x) | 0.291 | Cc1ccc(Nc2ncc(C(=O)NO)cn2)cc1 [Compound 4] |
| (152.9x) | 0.483 | 0.003 | (188x) | 0.594 | (229.8x) | 0.727 | COc1ccccc1C1(Nc2ncc(C(=O)NO)cn2)CC1 [Compound 133] |
| (58.9x) | 0.142 | 0.002 | (53.5x) | 0.129 | (98.1x) | 0.237 | O=C(NO)c1cnc(NC(c2ccccc2)c2ccccc2)nc1 [Compound 60] |
| 13.5x) | 0.17 | 0.013 | (10.8x) | 0.136 | (14.1x) | 0.177 | O=C(NO)c1cnc(Nc2cc(F)cc(F)c2)nc1 [Compound 18] |
| (362.4x) | 1.08 | 0.003 | (254.8x) | 0.761 | (495.3x) | 1.48 | CC(C)(Nc1ncc(C(=O)NO)cn1)c1ccc(F)cc1 [Compound 68] |
| (39.9x) | 1.63 | 0.041 | (34.5x) | 1.41 | (84.7x) | 3.46 | CC1(Nc2ncc(C(=O)NO)cn2)CCCCC1 [Compound 110] |
| (131.7x) | 0.478 | 0.004 | (69.1x) | 0.251 | (88x) | 0.319 | Cc1cc(C)cc(Nc2ncc(C(=O)NO)cn2)c1 [Compound 19] |
| (10.1x) | 0.22 | 0.004 | (11.4x) | 0.248 | (29.9x) | 0.649 | COc1ccc(C2(Nc3ncc(C(=O)NO)cn3)CCCC2)cc1 [Compound 152] |
| (9x) | 0.062 | 0.007 | (8x) | 0.055 | (18.5x) | 0.128 | O=C(NO)c1cnc(NC2(c3ccc(F)c(F)c3)CC2)nc1 [Compound 140] |
| (316.3x) | 0.966 | 0.003 | (374.2x) | 1.14 | (616.6x) | 1.88 | CC(C)(Nc1ncc(C(=O)NO)cn1)c1cccc(F)c1 [Compound 75] |
| (166.7x) | 0.446 | 0.003 | (83.1x) | 0.222 | (117x) | 0.313 | O=C(NO)c1cnc(Nc2cccc(C(F)(F)F)c2)nc1 [Compound 22] |
| (100.8x) | 1.39 | 0.014 | (102.2x) | 1.41 | (134.3x) | 1.85 | O=C(NO)c1cnc(Nc2cc(C(F)(F)F)cc(C(F)(F)F)c2)nc1 [Compound 15] |
